In ChEMBL document CHEMBL4145610, “Total Syntheses of Lobaric Acid and Its Derivatives from the Antarctic Lichen Stereocaulon alpinum” (J Nat Prod, 2018):

Target: T1, Tyrosine-protein phosphatase non-receptor type 1 (Homo sapiens, UniProt P18031)
T1 sequence (P18031 whole entry): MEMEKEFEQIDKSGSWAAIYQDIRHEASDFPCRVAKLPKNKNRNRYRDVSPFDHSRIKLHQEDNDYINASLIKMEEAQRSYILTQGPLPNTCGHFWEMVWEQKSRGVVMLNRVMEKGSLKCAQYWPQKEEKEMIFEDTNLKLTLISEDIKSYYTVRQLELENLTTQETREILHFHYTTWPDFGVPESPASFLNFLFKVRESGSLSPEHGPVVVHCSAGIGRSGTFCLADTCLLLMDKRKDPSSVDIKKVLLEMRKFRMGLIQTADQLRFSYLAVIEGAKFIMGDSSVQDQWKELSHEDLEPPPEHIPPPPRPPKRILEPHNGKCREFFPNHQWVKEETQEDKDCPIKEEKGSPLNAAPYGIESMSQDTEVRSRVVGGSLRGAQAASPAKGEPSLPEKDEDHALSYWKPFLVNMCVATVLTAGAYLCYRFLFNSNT
Test: Inhibition of PTP1B (1 to 298 residues) (unknown origin) using p-nitrophenylphosphate as substrate after 30 mins

Row | IC50 [nM] | Compound
1 | 800 | CCCCCc1c2c(cc(O)c1C(=O)O)OC(=O)c1c(cc(OC)cc1C(=O)CCCC)O2 [LOBARIC ACID]
2 | 1700 | CCCCCc1cc(O)cc(O)c1Oc1cc(OC)cc2c1C(=O)OC2(O)CCCC (stereo not given) [SAKISACAULON A]
3 | 500 | CCC/C=C1\OC(=O)c2c(Oc3c(O)cc(O)c(C(=O)O)c3CCCCC)cc(OC)cc21
4 | 900 | CCCCCc1c(Oc2cc(OC)cc3c2C(=O)OC3(O)CCCC)c(O)cc(O)c1C(=O)O (stereo not given)
5 | 1500 | CCCCCc1c(Oc2cc(OC)cc3c2C(=O)OC3(CCCC)OC)c(O)cc(O)c1C(=O)O (stereo not given)
